Here are results for nine compounds from patent US20260335340A1, “PHARMACEUTICAL COMPOSITION FOR TREATING LIVER CANCER COMPRISING CANNABIDIOL AND ANTICANCER AGENT AS ACTIVE INGREDIENTS AND USE THEREOF” (NEOCANNBIO CO., LTD., priority 2022, published 2026).

Structures are written as SMILES. Where two headings read alike, the source gives them in different places. A value given as a limit tells only on which side of the number the result lay.

Experiment [1] relates to HepG2 cells. The experiment can be described thus: Combined treatment effect of cabozantinib with cannabis-related compounds (cell viability). The class given is cell-based. Conditions: Homo sapiens, read-out: IC50 with Cabozantinib. As for the experimental part:
(§1) Cells (1.0×10^4) were seeded in 96-well plates and cultured in a medium for 24 hours. The cultured cells were treated with various concentrations of CBD and/or cabozantinib, etc., for 48 hours, and then cell viability was measured using a WST-8 assay kit (Biomax, SEOUL, Korea).
(§2) Specifically, HepG2 cells, a hepatoma cell line, were seeded at a concentration of 1×10^4 cells/well in a 96-well plate and cultured for 24 hours in an incubator at 37° C. and 10% CO2, then they were treated with cabozantinib at various concentrations and treated or not with cannabidiol (20 μM), and then cultured under the same conditions for 48 hours. After completion of the culture, 1/10 of the WST-8 solution (Quanti-Max™, BIOMAX, Korea) was added to the medium, and the culture was further conducted at 37° C. for 1 hour, the absorbance was measured at 450 nm to determine the cell viability, which was expressed as a ratio to the untreated control group. This experiment was conducted independently and repeated three times. Additionally, as positive control groups, sorafenib, lenvatinib, or regorafenib were treated instead of cabozantinib, respectively.

Experiment [2] has as its system HepG2 cells. The experiment can be described thus: Cell viability (WST-8) of anticancer agents with or without CBD. The experiment is classed as cell-based, human. Conditions: for IC50: Homo sapiens, HepG2, 48 h. As for the experimental part: Human HCC cell lines (HepG2 and Hep3B) were purchased from the American Type Culture Collection (ATCC). The cell lines were cultured in MEM (Gibco, Carlsbad, MD, USA) and DMEM (Gibco) supplemented with 10% FBS (Gibco), 100 U/mL penicillin, and 100 µg/mL streptomycin, respectively.
as §1, §2

Experiment [3] has as its system p53. The experiment can be described thus: Inhibition of P53 activation by L-ascorbic acid. The experiment is classed as cell-based, human. The following applies: ER stress induced by cabozantinib and CBD; FIG. 11. The method, then:
(§3) Next, the effect of L-ascorbic acid (LAA), known to alleviate ER stress, on the inhibition of P53 activation and apoptosis was investigated. As a result, it was confirmed that p53 activation and apoptosis caused by ER stress induced by combined treatment with cabozantinib and CBD were suppressed when LAA was treated (FIG. 11).

The subject of experiment [4] is HepG2 cells. Put plainly: Inhibition of apoptosis by L-ascorbic acid. The class given is cell-based, human. Conditions: ER stress induced by cabozantinib and CBD; FIG. 11. As for the experimental part:
as §3

The subject of experiment [5] is HepG2 cells. Put plainly: Apoptotic effect of combined treatment in presence of Chk2 inhibitor. The experiment is classed as cell-based, human. Conditions: with cabozantinib and CBD; FIG. 7A. The text has this: (§4) Next, to determine whether Chk2 activated by combined treatment with cabozantinib and CBD affects apoptosis, the anti-apoptotic effect mediated by Chk2 inhibitors was confirmed.

For experiment [6], the system named is p53. Put plainly: Phosphorylation of p53 in presence of Chk2 inhibitor. The class given is cell-based, human. Conditions: with cabozantinib and CBD; FIG. 7B.
Excerpt: as §4

The test system of the next experiment is apoptotic proteins. The experiment can be described thus: Levels of apoptotic proteins in presence of Chk2 inhibitor. The class given is cell-based, human. The following applies: with cabozantinib and CBD; FIG. 7B.
Excerpt: as §4

The next experiment has as its system pCDH-Ctrl HepG2 cells. The experiment can be described thus: Cell viability in control vector (pCDH-Ctrl) HepG2 cells with or without CBD. The experiment is classed as cell-based. Conditions: Homo sapiens. As for the experimental part: as §1
(§5) Total RNA was extracted from normal liver tissues and cDNA was synthesized to clone a tagged CNR1 and CNR2 coding gene sequences into a pCDH-CMV-EF1-puro vector. The CNR1 and CNR2 genes were amplified by PCR using specific primers including 5′-extension and NotI (NEB, Ipswich, MA, USA) and XbaI (NEB) restriction sites. CloneAmp HiFi PCR Premix ([…], San Jose, CA, USA) was used for PCR reactions. Subsequently, amplicons were obtained from the PCR products by gel extraction, digested with NotI and XbaI enzymes, and cloned into the pCDH-CMV-EF1-puro vector using the In-Fusion® cloning system according to the manufacturer's instructions.
(§6) HepG2 cells were transfected with pCDH-CMV-EF1-puro including the tagged CNR1 and CNR2 coding sequences together with gag-pol and VSV-G plasmids (plasmids 14887 and 8454, respectively; Addgene, Cambridge, MA, USA). […] To confirm the specificity and efficiency of CNR1 and CNR2 overexpression, mRNA expression levels were analyzed using RT-PCR. […]

In a further experiment the test system is tyrosine kinase c-Met. Conditions: known; cited from earlier work.
The subject of the next experiment is pCDH-CNR2 HepG2 cells. The experiment can be described thus: Cell viability in CNR2 overexpressing HepG2 cells with or without CBD. The class given is cell-based. The following applies: Homo sapiens. As for the experimental part:
as §1, §5, §6

In the next experiment the test system is VEGFR2. The following applies: known; cited from earlier work.
For another experiment, the system named is pCDH-CNR1 HepG2 cells. Put plainly: Cell viability in CNR1 overexpressing HepG2 cells with or without CBD. The following applies: Homo sapiens. The class given is cell-based. As for the experimental part: as §1, §5, §6
Where [7] appears, read: HepG2, 48 h, combined with cabozantinib.
[8] abbreviates: with 20 μM CBD, read-out: IC50 with CBD.
Where [9] appears, read: without CBD, read-out: IC50 without CBD.
The mark [10] stands for this setting: HepG2, read-out: IC50 without CBD.

For the compound `CCCCCc1cc2c(c(O)c1C(=O)O)[C@@H]1C=C(C)CC[C@H]1C(C)(C)O2` [THCA], in the experiment with HepG2 cells [1] (setting [7]), the IC50 worked out at 30.4 ± 0.85 µM.
On to `CNC(=O)c1cc(Oc2ccc(NC(=O)Nc3ccc(Cl)c(C(F)(F)F)c3)c(F)c2)ccn1` [Regorafenib], for which the IC50 was 9.74 µM with HepG2 cells [2] (setting [8]) and 14.1 µM in the experiment on HepG2 cells [2] (setting [9]).
On to `CCCCCc1cc(O)c2c(c1)OC(C)(C)[C@@H]1CCC(C)=C[C@@H]21` [THC, tetrahydrocannabinol], for which the IC50 in the experiment on HepG2 cells [1] (HepG2, 48 h) was 23.9 ± 0.55 µM.
`CNC(=O)c1cc(Oc2ccc(NC(=O)Nc3ccc(Cl)c(C(F)(F)F)c3)cc2)ccn1` [Sorafenib]: the IC50 is 9.24 µM in the experiment on HepG2 cells [2] (setting [8]) and 14.6 µM with HepG2 cells [2] (setting [9]).
In the case of `O=C1O[C@H]([C@@H](O)CO)C(O)=C1O` [LAA, L-ascorbic acid], the “effect on p53 activation caused by ER stress” value with p53 [3] is “suppressed”. Moreover, in the experiment on HepG2 cells [4], the “effect on apoptosis caused by ER stress” value is on record as “suppressed”.
Consider `NC(=O)c1ccc2nc(-c3ccc(Oc4ccc(Cl)cc4)cc3)[nH]c2c1` [BML-277], for which the “effect on the apoptotic effect of combined treatment” value with HepG2 cells [5] is on record as “inhibited the apoptotic effect”. Moreover, the “effect on phosphorylation of p53” value in the experiment with p53 [6] is recorded as “reduced the phosphorylation of p53”. The “effect on levels of apoptotic proteins” value in the experiment with apoptotic proteins is on record as “reduced”.
`COc1cc2nccc(Oc3ccc(NC(=O)C4(C(=O)Nc5ccc(F)cc5)CC4)cc3)c2cc1OC` [Cabozantinib]: the IC50 was 16 µM in the experiment on pCDH-Ctrl HepG2 cells (HepG2, read-out: IC50 with CBD); above 100 µM with pCDH-Ctrl HepG2 cells (setting [10]); 15.8 µM in the experiment with HepG2 cells [2] (setting [8]); above 100 µM in the experiment on HepG2 cells [2] (setting [9]); 18.2 µM in the experiment with pCDH-CNR2 HepG2 cells (HepG2, read-out: IC50 with CBD); above 100 µM in the experiment on pCDH-CNR2 HepG2 cells (setting [10]). The IC50 was 20.2 µM with pCDH-CNR1 HepG2 cells (HepG2, read-out: IC50 with CBD) and above 100 µM in the experiment with pCDH-CNR1 HepG2 cells (setting [10]). The “inhibition of tyrosine kinase c-Met” value in the experiment with tyrosine kinase c-Met was “inhibit tyrosine kinase c-Met and VEGFR2”. The “toxicity of cabozantinib against HepG2 cells when combine treated with cannabidiol” value in the experiment on HepG2 cells [2] (vs cabozantinib alone, 20 μM CBD, 48 h, FIG. 4A) was “significantly increased”. In addition, the “inhibition of VEGFR2” value with VEGFR2 is “inhibit tyrosine kinase c-Met and VEGFR2”.
In the case of `COc1cc2nccc(Oc3ccc(NC(=O)NC4CC4)c(Cl)c3)c2cc1C(N)=O` [Lenvatinib], the IC50 in the experiment on HepG2 cells [2] (setting [8]) and in the experiment with HepG2 cells [2] (setting [9]) was above 100 µM throughout.
As for `C=C(C)[C@@H]1CCC(C)=C[C@H]1c1c(O)cc(CCCCC)c(C(=O)O)c1O` [CBDA, cannabidiolic acid], the IC50 with HepG2 cells [1] (setting [7]) worked out at 35.9 ± 1.35 µM.
